Source: publication PMC5232348, “Molecular and Functional Characterization of Three Odorant-Binding Protein from Periplaneta americana” (PLoS ONE, 2017)

Columns and labels:
PameOBP1 = PameOBP1 (Periplaneta americana, UniProt B6E9U7); test: Binding of fluorescent probe 1-NPN to PameOBP1 (saturation, Scatchard); conditions: read-out: dissociation constant of 1-NPN for PameOBP1
Description: (§1) Emission fluorescence spectra were measured on a Hitachi F-4500 fluorescence spectrophotometer following our previous studies. Firstly, dissociation constants of the PameOBPs for N-phenyl-1-naphtylamine (1-NPN) were calculated to determine the suitability of 1-NPN as a fluorescence reporter. After the determination of the reporter, the affinities of the PameOBPs for each ligand were measured using 2 μM 1-NPN as the fluorescent reporter and 0.25–2.5 μM or 2–40 μM as competitor, in at least three technical replicates. The binding data were analyzed following our previous studies.
(§2) To investigate the role of three PameOBPs in the detection of odorants, we firstly tested the binding affinity of PameOBPs to fluorescent probe 1-NPN. […] Saturation and linear Scatchard plots (Fig 5A) indicated single binding sites in the proteins with no allosteric effects. We were, therefore, able to use the fluorescence competitive binding assay to determine the binding affinities of these three PameOBPs to 87 odorants from apple, grape, peach, pear, the juice of these fruits, and beer.

PameOBP2 = PameOBP2 (Periplaneta americana, UniProt B6E9U8); test: Binding of fluorescent probe 1-NPN to PameOBP2 (saturation, Scatchard); conditions: read-out: dissociation constant of 1-NPN for PameOBP2
Description: as §1, §2

PameOBP3 = PameOBP3 (Periplaneta americana, UniProt B6E9U9); test: Binding of fluorescent probe 1-NPN to PameOBP3 (saturation, Scatchard); conditions: read-out: dissociation constant of 1-NPN for PameOBP3
Description: as §1, §2

Chain of PameOBP2 (B6E9U8 entry or part of it): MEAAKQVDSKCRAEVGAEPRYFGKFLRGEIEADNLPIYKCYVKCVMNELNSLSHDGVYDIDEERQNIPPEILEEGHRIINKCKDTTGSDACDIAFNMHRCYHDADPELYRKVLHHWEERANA
Chain of PameOBP3 (B6E9U9 entry or part of it): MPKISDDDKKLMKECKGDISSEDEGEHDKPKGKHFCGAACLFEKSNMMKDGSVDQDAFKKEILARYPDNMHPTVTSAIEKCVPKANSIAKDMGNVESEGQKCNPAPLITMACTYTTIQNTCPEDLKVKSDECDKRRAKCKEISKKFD
Chain of PameOBP1 (B6E9U7 entry or part of it): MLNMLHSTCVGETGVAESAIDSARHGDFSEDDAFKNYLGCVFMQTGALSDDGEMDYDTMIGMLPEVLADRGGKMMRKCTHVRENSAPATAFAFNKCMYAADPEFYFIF

## c1ccc(Nc2cccc3ccccc23)cc1 [1-NPN, N-phenyl-1-naphtylamine]
PameOBP1
  Kd: 20.5 µM
PameOBP2
  Kd: 8.04 µM
PameOBP3
  Kd: 24.9 µM
